Results from ChEMBL document CHEMBL3580552, “Antiplasmodial and Cytotoxic Triterpenoids from the Bark of the Cameroonian Medicinal Plant Entandrophragma congoënse” (J Nat Prod, 2015).

Tests used:
L6 = assay: Cytotoxicity against rat L6 cells after 72 hrs by Alamar blue assay; type: cell-based; details: L6, 72 h
[1] = Selectivity index, ratio of IC50 for rat L6 cells to IC50 for erythrocytic stages of Plasmodium falciparum NF54; type: toxicity, cell-based; details: read-out: Ratio IC50
Plasmodium falciparum = assay: Antiplasmodial activity against chloroquine-sensitive erythrocytic stage Plasmodium falciparum NF54 assessed as [3H]hypoxanthine incorporation after 48 to 72 hrs by Betaplate liquid scintillation counting; type: functional, organism-based

Row | Structure (SMILES) | IC50 (Plasmodium falciparum) [µM] | IC50 (L6) [µM] | IC50 (L6; read-out: IC50) [µM] | selectivity ratio [1]
1 | COc1cc([C@@H]2c3cc4c(cc3[C@H](O)[C@H]3COC(=O)[C@H]23)OCO4)cc(OC)c1OC [PODOFILOX] |  | 0.012 |  | 
2 | C=C(C)[C@@H]1CC=C2[C@H](CC[C@@]3(C)[C@H]([C@@H](C)CC(O)C(O)C(C)(C)O)CC[C@]23C)[C@@]1(C)CCC(=O)O (stereo partly drawn) | 19.3 |  | 56.1 | 2.9
3 | CC(C)=CC(=O)O[C@H]1CC[C@]2(C)[C@H]3CC[C@]45C[C@]4(CC[C@H]5[C@@H]4C[C@H]([C@H](O)C(C)(C)O)O[C@H]4O)[C@]3(C)[C@H](O)C[C@H]2C1(C)C | 1.4 |  | 6.5 | 4.4
4 | CC(=O)O[C@@H]1C[C@H]2C(C)(C)[C@H](O)CC[C@]2(C)[C@H]2CC[C@]3(C)C(=CC[C@H]3[C@@H]3C[C@H]([C@H](O)C(C)(C)O)OC3=O)[C@@]21C | 2 |  | 42.4 | 21
5 | CC(C)=CC(=O)O[C@H]1CC[C@]2(C)[C@H]3CC[C@]45C[C@]4(CC[C@H]5[C@@H]4C[C@H]([C@@H]5O[C@@]5(C)CO)O[C@H]4O)[C@]3(C)[C@H](O)C[C@H]2C1(C)C | 1.3 |  | 8.6 | 6.8
6 | CC(C)(O)[C@H](O)[C@H]1C[C@@H]([C@@H]2CC=C3[C@]4(C)[C@H](O)C[C@H]5C(C)(C)C(=O)C=C[C@]5(C)[C@H]4CC[C@]32C)C(=O)O1 | 1.3 |  | 32.3 | 25.2

Continued, in another order:

Row | IC50 (Plasmodium falciparum) [µM] | Structure (SMILES) | IC50 (L6) [µM] | IC50 (L6; read-out: IC50) [µM] | selectivity ratio [1]
7 | 0.87 | CC(=O)O[C@@H]1CC[C@]2(C)[C@H]3CC[C@]4(C)C(=CC[C@H]4[C@@H]4C[C@H]([C@H](O)C(C)(C)O)OC4=O)[C@]3(C)[C@H](OC(C)=O)C[C@H]2C1(C)C |  | 11 | 12.7
8 | 1.3 | CO[C@@H]1O[C@@H]([C@H](O)C(C)(O)CO)C[C@H]1[C@@H]1CC[C@]23C[C@]12CC[C@@H]1[C@@]2(C)CC[C@H](OC(=O)C=C(C)C)C(C)(C)[C@@H]2C[C@@H](O)[C@]13C (stereo partly drawn) |  | 11.9 | 9
9 | 0.44 | CC(=O)O[C@@H]1C[C@H]2C(C)(C)C(=O)C=C[C@]2(C)[C@H]2CC[C@]3(C)C(=CC[C@H]3[C@@H]3C[C@H]([C@@H]4OC4(C)C)OC3=O)[C@@]21C |  | 5.3 | 12.1
10 | 0.67 | CC(=O)O[C@@H]1C[C@H]2C(C)(C)C(=O)C=C[C@]2(C)[C@H]2CC[C@]3(C)C(=CC[C@H]3[C@@H]3C[C@H]([C@H](O)C(C)(C)O)OC3=O)[C@@]21C |  | 70.6 | 105
